From PMC2765805 (Journal of medicinal chemistry, 2009) come the findings set out here.

The target in experiment [1] is T1, human A3 adenosine receptor (Homo sapiens, UniProt P0DMS8).
T1 sequence (P0DMS8 1-318): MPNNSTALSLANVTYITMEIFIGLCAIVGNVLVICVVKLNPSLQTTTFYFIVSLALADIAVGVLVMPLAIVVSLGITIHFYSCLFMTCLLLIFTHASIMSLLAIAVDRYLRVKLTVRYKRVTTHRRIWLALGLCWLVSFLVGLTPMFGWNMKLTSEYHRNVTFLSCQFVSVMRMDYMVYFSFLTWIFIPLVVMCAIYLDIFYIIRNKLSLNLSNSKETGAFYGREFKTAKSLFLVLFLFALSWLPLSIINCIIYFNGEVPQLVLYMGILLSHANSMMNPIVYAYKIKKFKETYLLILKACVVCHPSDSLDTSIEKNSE
Briefly: biochemical. Further details: species or system CHO. Conditions: read-out: % inhibition.

The target of experiment [2] is T1, human A3 adenosine receptor. Briefly: biochemical. The following applies: read-out: % inhibition. The arrangement: species or system CHO. This is another data set of the same source.

Structures are written as SMILES. Where two headings read alike, the source gives them in different places.

The inhibition is the change of the read-out against control, counted positive when it falls. Consider `Clc1ccc(Nc2nc3ccccc3c3[nH]c(C4CCCCC4)nc23)cc1Cl` [compound 3], for which the inhibition at 10 µM in experiment [1] and in experiment [2] was 40.5 ± 13.4% throughout.
